Values of other authors in paper PMC9377340 (Chemical biology & drug design, 2022).
Where “and” joins values, the source holds several entries; their conditions need not be identical. Identical values can stand only once.

Target: human FXIa (Homo sapiens, UniProt P03951)
Settings: ref Kar et al., 2020

human FXIa, sequence (P03951 388-625 limits assumed): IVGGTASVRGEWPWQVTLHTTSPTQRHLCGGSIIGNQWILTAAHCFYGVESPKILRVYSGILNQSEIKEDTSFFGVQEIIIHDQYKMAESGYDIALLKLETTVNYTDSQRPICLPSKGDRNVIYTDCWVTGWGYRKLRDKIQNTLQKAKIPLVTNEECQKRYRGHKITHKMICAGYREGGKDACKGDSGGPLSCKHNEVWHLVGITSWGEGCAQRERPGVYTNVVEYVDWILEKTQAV
human FXIa, sequence (P03951 19-387 limits assumed): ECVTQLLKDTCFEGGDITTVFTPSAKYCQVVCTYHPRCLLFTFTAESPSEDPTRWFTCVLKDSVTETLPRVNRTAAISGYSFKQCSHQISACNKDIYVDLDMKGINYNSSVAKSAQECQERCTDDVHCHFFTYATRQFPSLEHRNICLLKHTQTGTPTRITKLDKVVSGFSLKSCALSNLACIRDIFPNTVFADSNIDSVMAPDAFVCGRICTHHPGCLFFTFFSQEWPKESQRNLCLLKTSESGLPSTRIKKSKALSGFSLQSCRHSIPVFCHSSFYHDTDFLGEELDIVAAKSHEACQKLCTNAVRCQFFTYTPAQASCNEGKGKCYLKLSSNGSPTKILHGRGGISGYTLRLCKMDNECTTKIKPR

IC50 (read-out: IC50, FXIa inhibition): ~7.4 µM and 7.4 µM | HS (Hill slope), FXIa inhibition: 1.9 ± 0.5 | ΔY (efficacy), FXIa inhibition: 68.0 ± 3.7%
Substance: benzyl tetraphosphonate [BTP]
